{
  "source": "patent US20040093331A1",
  "about": "“Computer program products, systems and methods for information discovery and relational analyses” (Board of Regents, University of Texas System, priority 2002, published 2004)",
  "tested_on": "cardiac hypertrophy",
  "experiment": "Isoproterenol-induced cardiac hypertrophy in mice, osmotic micro-infusion pumps, echocardiography before and 7 days after start of infusion",
  "assay_type": "in vivo",
  "protocol": "Validation of a relevant relationship between chlorpromazine and cardiac hypertrophy was performed through a series of laboratory studies in mice comparing the effects of a known beta-adrenergic agonist (also known to induce hypertrophy), isoproterenol, with isoproterenol plus chlorpromazine.\nIn brief, the study included 2 groups of 8 mice fitted with osmotic micro-infusion pumps. One group was given a continuous dose of 20 mg/kg/day isoproterenol and the other 20 mg/kg/day isopreterenol+10 mg/kg/day chlorpromazine. A smaller dose of chlorpromazine was chosen in preference to a larger one to minimize alterations in feeding behavior. Additionally, it reduced an adverse reaction between chlorpromazine and avertin (tribromoethanol), a anesthetic agent. Echocardiograms were taken before treatment and 7 days after initiation of infusions. Mice were sacrificed and their heart weighed.\nFIG. 19 and TABLE 22 summarize the study findings. Generally, cardiac hypertrophy (as assessed by echocardiography) was reduced in mice treated with chlorpromazine plus isoproterenol. […] Echocardiography was use to estimate the change in weight or thickness of several different cardiac structures over the course of treatment. For FIG. 19, ten mice received isoproterenol (ISO) and eight received isoproterenol and chlorpromazine (CPZ+ISO), where LVW=left ventricle weight (CPZ+ISO 11±27%, ISO 51±43%, P<0.02); LVMI=left ventricular mass index (CPZ+ISO 11±28%, ISO 50±52%, P<0.04); PWT=posterior wall thickness (CPZ+ISO 16±16%, ISO 36±27%, P<0.05), IVSWT=intraventricular septum wall thickness (CPZ+ISO 19±18%, ISO 31±20%, P<0.12).",
  "data": [
    {"compound": "C=CCN1CC[C@]23c4c5ccc(O)c4O[C@H]2C(=O)CC[C@@]3(O)[C@H]1C5", "note": "[Naloxone]", "values": [
      {"measurement": "effect of the drug in a mouse model of cardiohypertrophy", "setting": "mouse model as described for chlorpromazine, values not given", "result": "validated in vivo"}
    ]},
    {"compound": "CC(C)NCC(O)c1ccc(O)c(O)c1", "note": "(stereo not shown) [ISO, isoproterenol]", "values": [
      {"measurement": "LVMI=left ventricular mass index", "setting": "FIG. 19, change over course of treatment, echocardiography, P<0.04", "result": "50±52", "unit": "%"},
      {"measurement": "PWT=posterior wall thickness", "setting": "FIG. 19, change over course of treatment, echocardiography, P<0.05", "result": "36±27", "unit": "%"},
      {"measurement": "IVSWT=intraventricular septum wall thickness", "setting": "FIG. 19, change over course of treatment, echocardiography, P<0.12", "result": "31±20", "unit": "%"},
      {"measurement": "LVW=left ventricle weight", "setting": "FIG. 19, change over course of treatment, echocardiography, ten mice ISO, eight CPZ+ISO, P<0.02", "result": "51±43", "unit": "%"},
      {"measurement": "DI VS WT", "setting": "Table 22, change in intraventricular septum wall thickness over treatment, echocardiography, 7 days infusion", "result": "31% ± 21%"},
      {"measurement": "LLVW", "setting": "Table 22, change in left ventricle weight over treatment, echocardiography, 20 mg/kg/day isoproterenol with or without 10 mg/kg/day chlorpromazine, 7 days", "result": "53% ± 45%"},
      {"measurement": "OLVMI", "setting": "Table 22, change in left ventricular mass index over treatment, echocardiography, 7 days infusion", "result": "50% ± 55%"},
      {"measurement": "OPWT", "setting": "Table 22, change in posterior wall thickness over treatment, echocardiography, 7 days infusion", "result": "36% ± 28%"}
    ]},
    {"compound": "CN(C)CCCN1c2ccccc2Sc2ccc(Cl)cc21", "note": "[chlorpromazine]", "values": [
      {"measurement": "cardiac hypertrophy (as assessed by echocardiography)", "setting": "10 mg/kg/day chlorpromazine + 20 mg/kg/day isoproterenol versus isoproterenol alone, mice", "result": "protected the mice against the development of cardiac hypertrophy"}
    ]}
  ]
}
